For one compound, EC50 results are on record in US20080020368A1, “Method and apparatus for exposing cells to different concentrations of analytes or drugs” (priority 2006, published 2008).

pEC50: −log10 of the molar value.

The subject of this assay is HL60 cells. The experiment in a line: On-chip TMR study: laser-enhanced TMR fluorescence response of docked cells in tapered microchannel device. The assay is classed as cell-based. As to conditions: Homo sapiens, HL-60, light or radiation study; HL60 cells docked on upper sandbag, on-chip serial dilution of TMR, fast Helium-Neon laser irradiation (~70 ms/ROI) for 3 more minutes; 50% intensity; read-out: EC50 of TMR concentration required to trigger the enhanced fluorescence response. From the text:
It was the highly compact design of this microdevice that facilitated the comparative study between large amounts of cells on two sandbag components. […] However, only a region of interest (ROI) on the upper sandbag was subjected to fast laser irradiation (˜70 ms/ROI of Helium-Neon laser) for 3 more minutes. A confocal image of both sandbags after the fast irradiation was developed.
Furthermore, despite the large ROI coverage over the upper sandbag, the enhanced response was evidenced for the cells incubated at higher TMR concentration near the sandbag rear. Therefore, the conclusion is that the enhanced response was at least related to 1) concentration of TMR and 2) the amount of laser irradiation.
Referring to FIG. 30, photomicrographs are shown one on top of the other, with the top photomicrograph showing cells docked on both sandbags but only those encircled by the black dotted framework are subjected to laser irradiation. […] The purpose of these photomicrographs is to show the power of the microchip to perform rapid analysis and retrieve effective concentration of a photodynamic therapy drug candidate that is sensitive to light irradiation.
The response profiles of cells docked on the upper and lower sandbags of FIG. 30 are plotted in FIG. 31. […] Note further that there is an average peak in intensity at a 3.73 μM at 50% intensity. […]

In the case of `CN(C)c1ccc2c(-c3ccc(CCl)cc3)c3ccc(=[N+](C)C)cc-3oc2c1` [TMR, Tetramethylrosamine], the pEC50 was 5.43.
